Where two headings read alike, the source gives them in different places.
Assays:
[1] = molecular target: HCV NS3/4A protease genotype 1b (Hepatitis C virus genotype 1b, UniProt P26663); assay: HCV NS3/4A protease time-resolved fluorescence (TRF) assay, Ki against genotype 1b; assay type: biochemical
Summary of the method: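 Ki values come from IC50 fits corrected for substrate concentration and KM. The time-resolved fluorescence protease reaction used 25 nM peptide substrate, 2.5 h, room temperature, pH 7.5 HEPES buffer, after 30 min enzyme–inhibitor preincubation.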

[2] = system: HCV genotype 1b replicon; assay: HCV replicon assay, genotype 1b replicon EC50; assay type: cell-based, Hepatitis C virus; settings: read-out: EC50 [gt-1b]
Summary of the method: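 Cells harbouring a stable replicon are grown under G418 selection, then plated with test compound in G418-free medium for 24-48 hours. After washing and lysis, RNA or luciferase signal is measured and expressed as percent of DMSO control to give EC50.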

[3] = IC50 [gt-1b] (nM), NS3/4A genotype 1b, enzyme 0.2 nM
[4] = Hepatitis C virus, genotype 1b replicon
[5] = IC50 [gt-1b], NS3/4A protease TRF assay, genotype 1b enzyme 0.2 nM
[6] = Hepatitis C virus, HCV replicon, genotype 1b

Chain of HCV NS3/4A protease genotype 1b (P26663 1027-1657): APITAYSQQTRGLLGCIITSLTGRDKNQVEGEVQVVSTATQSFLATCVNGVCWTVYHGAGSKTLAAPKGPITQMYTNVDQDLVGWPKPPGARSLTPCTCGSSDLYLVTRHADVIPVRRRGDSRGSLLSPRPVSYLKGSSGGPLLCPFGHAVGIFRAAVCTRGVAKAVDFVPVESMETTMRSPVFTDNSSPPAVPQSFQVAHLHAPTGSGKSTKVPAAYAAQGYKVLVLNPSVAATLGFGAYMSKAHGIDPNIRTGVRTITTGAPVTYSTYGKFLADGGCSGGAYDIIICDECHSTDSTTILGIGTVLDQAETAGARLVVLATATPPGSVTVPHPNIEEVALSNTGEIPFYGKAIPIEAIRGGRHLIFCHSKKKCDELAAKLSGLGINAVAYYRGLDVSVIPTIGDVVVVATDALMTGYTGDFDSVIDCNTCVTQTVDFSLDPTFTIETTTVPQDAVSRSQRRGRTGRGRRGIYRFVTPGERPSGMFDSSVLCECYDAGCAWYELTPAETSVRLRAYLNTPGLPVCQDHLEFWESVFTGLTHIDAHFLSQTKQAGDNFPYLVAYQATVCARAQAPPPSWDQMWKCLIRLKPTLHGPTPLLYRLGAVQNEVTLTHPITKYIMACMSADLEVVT
Chain of HCV NS3/4A protease genotype 1b (P26663 1658-1711): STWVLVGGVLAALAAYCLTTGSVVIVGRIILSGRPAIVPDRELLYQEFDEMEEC

Compound | IC50 [1, 3] | EC50 [2, 4] | IC50 [1, 5] | also measured
COCCC(C)(C)OC(=O)N[C@H]1CCCCC/C=C\[C@@H]2C[C@@]2(C(=O)NS(=O)(=O)C2(C)CC2)NC(=O)[C@@H]2C[C@]3(CCc4c(c(C)nc5ccc(OC(F)(F)F)cc45)O3)CN2C1=O [Example 208, 4-methoxy-2-methylbutan-2-yl [(2R,6S,12Z,13aS,14aR,16aS)-5′-methyl-14a-{[(1-methylcyclopropyl)sulfonyl]carbamoyl}-5,16-dioxo-9′-(trifluoromethoxy)-1,1′,2′,5,6,7,8,9,10,11,13a,14,14a,15,16,16a-hexadecahydrospiro[cyclopropa[e]pyrrolo[1,2-a][1,4]diazacyclopentadecine-2,3′-pyrano[2,3-c]quinolin]-6-yl]carbamate] | 0.009 nM | 2.05 nM |  | 
COCC1(S(=O)(=O)NC(=O)[C@@]23C[C@H]2/C=C\CCCCC[C@H](NC(=O)OCC(C)C)C(=O)N2C[C@@]4(CCc5c(c(C(F)(F)F)nc6ccc(OC)cc56)O4)C[C@H]2C(=O)N3)CC1 [Example 473, 2-methylpropyl [(2R,6S,12Z,13aS,14aR,16aS)-9′-methoxy-14a-({[1-(methoxymethyl)cyclopropyl]sulfonyl}carbamoyl)-5,16-dioxo-5′-(trifluoromethyl)-1,1′,2′,5,6,7,8,9,10,11,13a,14,14a,15,16,16a-hexadecahydrospiro[cyclopropa[e]pyrrolo[1,2-a][1,4]diazacyclopentadecine-2,3′-pyrano[2,3-c]quinolin]-6-yl]carbamate] |  |  | 0.031 nM | EC50 [2, 6]: 2.27 nM
Cc1nc2ccccc2c2c1O[C@]1(CC2)C[C@H]2C(=O)N[C@]3(C(=O)NS(=O)(=O)C4(C)CC4)C[C@H]3/C=C\CCCCC[C@H](NC(=O)OC3CCC(F)(F)C3)C(=O)N2C1 (stereo partly drawn) [Example 376, 3,3-difluorocyclopentyl [(2R,6S,12Z,13aS,14aR,16aS)-5′-methyl-14a-{[(1-methylcyclopropyl)sulfonyl]carbamoyl}-5,16-dioxo-1,1′,2′,5,6,7,8,9,10,11,13a,14,14a,15,16,16a-hexadecahydrospiro[cyclopropa[e]pyrrolo[1,2-a][1,4]diazacyclopentadecine-2,3′-pyrano[2,3-c]quinolin]-6-yl]carbamate] |  |  | 0.013 nM | EC50 ([2]; HCV replicon, genotype 1b): 2.69 nM
CC(C)(C)OC(=O)N[C@H]1CCCCC/C=C\[C@@H]2C[C@@]2(C(=O)NS(=O)(=O)C2(C)CC2)NC(=O)[C@@H]2C[C@]3(CCc4c(cnc5ccccc45)O3)CN2C1=O [Example 99, tert-butyl [(2R,6S,12Z,13aS,14aR,16aS)-14a-{[(1-methylcyclopropyl)sulfonyl]carbamoyl}-5,16-dioxo-1,1′,2′,5,6,7,8,9,10,11,13a,14,14a,15,16,16a-hexadecahydrospiro[cyclopropa[e]pyrrolo[1,2-a][1,4]diazacyclopentadecine-2,3′-pyrano[2,3-c]quinolin]-6-yl]carbamate] | 0.033 nM | 4.53 nM |  | 
COc1ccc2nc(C3CCC3)c3c(c2c1)CC[C@]1(C[C@H]2C(=O)N[C@]4(C(=O)NS(=O)(=O)C5(C)CC5)C[C@H]4/C=C\CCCCC[C@H](NC(=O)OCC(C)C)C(=O)N2C1)O3 [Example 171, 2-methylpropyl [(2R,6S,12Z,13aS,14aR,16aS)-5′-cyclobutyl-9′-methoxy-14a-{[(1-methylcyclopropyl)sulfonyl]carbamoyl}-5,16-dioxo-1,1′,2′,5,6,7,8,9,10,11,13a,14,14a,15,16,16a-hexadecahydrospiro[cyclopropa[e]pyrrolo[1,2-a][1,4]diazacyclopentadecine-2,3′-pyrano[2,3-c]quinolin]-6-yl]carbamate] | 0.013 nM | 1.62 nM |  | 
COc1ccc2nc(C3CC3)c3c(c2c1)CC[C@]1(C[C@H]2C(=O)N[C@]4(C(=O)NS(=O)(=O)C5(C)CC5)C[C@H]4/C=C\CCCCC[C@H](NC(=O)O[C@H](C)C(C)C)C(=O)N2C1)O3 [Example 413, (2R)-3-methylbutan-2-yl [(2R,6S,12Z,13aS,14aR,16aS)-5′-cyclopropyl-9′-methoxy-14a-{[(1-methylcyclopropyl)sulfonyl]carbamoyl}-5,16-dioxo-1,1′,2′,5,6,7,8,9,10,11,13a,14,14a,15,16,16a-hexadecahydrospiro[cyclopropa[e]pyrrolo[1,2-a][1,4]diazacyclopentadecine-2,3′-pyrano[2,3-c]quinolin]-6-yl]carbamate] |  |  |  | IC50 ([1]; IC50 [gt-1b], NS3/4A protease TRF assay, genotype 1b enzyme 0.2 nM, K+ salt): 0.021 nM; EC50 ([2]; Hepatitis C virus, HCV replicon, genotype 1b, K+ salt): 2.53 nM
Cc1nc2ccccc2c2c1O[C@]1(CC2)C[C@H]2C(=O)N[C@]3(C(=O)NS(=O)(=O)C4(C)CC4)C[C@H]3/C=C\CCCCC[C@H](Nc3ccccn3)C(=O)N2C1 [Example 353, (2R,6S,12Z,13aS,14aR,16aS)-5′-methyl-N-[(1-methylcyclopropyl)sulfonyl]-5,16-dioxo-6-(pyridin-2-ylamino)-1,1′,2′,6,7,8,9,10,11,13a,14,15,16,16a-tetradecahydrospiro[cyclopropa[e]pyrrolo[1,2-a][1,4]diazacyclopentadecine-2,3′-pyrano[2,3-c]quinoline]-14a(5R)-carboxamide] | 0.111 nM | 39.5 nM |  | 
CC(C)(C)OC(=O)N[C@H]1CCCCC/C=C\[C@@H]2C[C@@]2(C(=O)NS(=O)(=O)C2(C)CC2)NC(=O)[C@@H]2C[C@]3(CCc4c(c(C(F)F)nc5ccccc45)O3)CN2C1=O [Example 306, tert-butyl [(2R,6S,12Z,13aS,14aR,16aS)-5′-(difluoromethyl)-14a-{[(1-methylcyclopropyl)sulfonyl]carbamoyl}-5,16-dioxo-1,1′,2′,5,6,7,8,9,10,11,13a,14,14a,15,16,16a-hexadecahydrospiro[cyclopropa[e]pyrrolo[1,2-a][1,4]diazacyclopentadecine-2,3′-pyrano[2,3-c]quinolin]-6-yl]carbamate] | 0.015 nM | 1.87 nM |  | 
CC(C)COC(=O)N[C@H]1CCCCC/C=C\[C@@H]2C[C@@]2(C(=O)NS(=O)(=O)C2(C)CC2)NC(=O)[C@@H]2C[C@]3(CCc4c(c(C(F)F)nc5ccc(Cl)cc45)O3)CN2C1=O [Example 368, 2-methylpropyl [(2R,6S,12Z,13aS,14aR,16aS)-9′-chloro-5′-(difluoromethyl)-14a-{[(1-methylcyclopropyl)sulfonyl]carbamoyl}-5,16-dioxo-1,1′,2′,5,6,7,8,9,10,11,13a,14,14a,15,16,16a-hexadecahydrospiro[cyclopropa[e]pyrrolo[1,2-a][1,4]diazacyclopentadecine-2,3′-pyrano[2,3-c]quinolin]-6-yl]carbamate] |  |  | 0.017 nM | EC50 [2, 6]: 9.68 nM
Cc1nc2ccc(OC(F)(F)F)cc2c2c1O[C@]1(CC2)C[C@H]2C(=O)N[C@]3(C(=O)NS(=O)(=O)C4(C)CC4)C[C@H]3/C=C\CCCCC[C@H](NC(=O)OCC(C)C)C(=O)N2C1 [Example 124, 2-methylpropyl [(2R,6S,12Z,13aS,14aR,16aS)-5′-methyl-14a-{[(1-methylcyclopropyl)sulfonyl]carbamoyl}-5,16-dioxo-9′-(trifluoromethoxy)-1,1′,2′,5,6,7,8,9,10,11,13a,14,14a,15,16,16a-hexadecahydrospiro[cyclopropa[e]pyrrolo[1,2-a][1,4]diazacyclopentadecine-2,3′-pyrano[2,3-c]quinolin]-6-yl]carbamate] | 0.016 nM | 2.49 nM |  | 
Cc1nc2ccc(OCC(F)(F)F)cc2c2c1O[C@]1(CC2)C[C@H]2C(=O)N[C@]3(C(=O)NS(=O)(=O)C4(C)CC4)C[C@H]3/C=C\CCCCC[C@H](NC(=O)OCC(C)(C)C)C(=O)N2C1 [Example 303, 2,2-dimethylpropyl [(2R,6S,12Z,13aS,14aR,16aS)-5′-methyl-14a-{[(1-methylcyclopropyl)sulfonyl]carbamoyl}-5,16-dioxo-9′-(2,2,2-trifluoroethoxy)-1,1′,2′,5,6,7,8,9,10,11,13a,14,14a,15,16,16a-hexadecahydrospiro[cyclopropa[e]pyrrolo[1,2-a][1,4]diazacyclopentadecine-2,3′-pyrano[2,3-c]quinolin]-6-yl]carbamate] | 0.012 nM | 5.79 nM |  | 
COc1ccc2nc(CC(F)(F)F)c3c(c2c1)CC[C@]1(C[C@H]2C(=O)N[C@]4(C(=O)NS(=O)(=O)C5(C)CC5)C[C@H]4/C=C\CCCCC[C@H](NC(=O)OCC(C)(C)C)C(=O)N2C1)O3 [Example 48, Neopentyl((2R,6S,13aS,14aR,16aS,Z)-9′-methoxy-14a-(((1-methylcyclopropyl)sulfonyl)carbamoyl)-5,16-dioxo-5′-(2,2,2-trifluoroethyl)-1′,2′,3,5,6,7,8,9,10,11, 13a,14,14a,15,16,16a-hexadecahydro-1H-spiro[cyclopropa[e]pyrrolo[1,2-a][1,4]diazacyclopentadecine-2,3′-pyrano[2,3-c]quinolin]-6-yl)carbamate] | 0.006 nM | 1.1 nM |  | 
CCc1nc2ccc(OC)cc2c2c1O[C@]1(CC2)C[C@H]2C(=O)N[C@]3(C(=O)NS(=O)(=O)C4(C)CC4)C[C@H]3/C=C\CCCCC[C@H](NC(=O)O[C@@H](C)C3CC3)C(=O)N2C1 [Example 486, (1S)-1-cyclopropylethyl [(2R,6S,12Z,13aS,14aR,16aS)-5′-ethyl-9′-methoxy-14a-{[(1-methylcyclopropyl)sulfonyl]carbamoyl}-5,16-dioxo-1,1′,2′,5,6,7,8,9,10,11,13a,14,14a,15,16,16a-hexadecahydrospiro[cyclopropa[e]pyrrolo[1,2-a][1,4]diazacyclopentadecine-2,3′-pyrano[2,3-c]quinolin]-6-yl]carbamate] |  |  | 0.01 nM | EC50 [2, 6]: 15.2 nM

Source: patent publication US8987195B2 (priority 2012, dated 2015)
